From patent US20240158446A1, “CYCLIC COMPOUND HAVING SELECTIVE INHIBITORY ACTION ON KRAS OVER HRAS AND NRAS” (CHUGAI SEIYAKU KABUSHIKI KAISHA, priority 2021, published 2024)
*1 amine or outer side, *2 acyl side, *3 side chain or, on linkers, in order; H or OH if unused. Where a SMILES comes first, the peptide text is derived from it. Bridges are numbered along the chain shown (N, C = ends). [ ]: non-standard residue; d: D form. The star is where a group is joined. hPhe(3-Cl-4-CF3) = N[C@@H](CCc1ccc(C(F)(F)F)c(Cl)c1)C(=O)O; NPrPhe(4-CF3) = CCCN[C@@H](Cc1ccc(C(F)(F)F)cc1)C(=O)O; NEtAsp = CCN([C@@H](CC(=O)[*:3])C(=O)[*:2])[*:1]; NMeGly(cPent) = CN[C@H](C(=O)O)C1CCCC1; NMeD = CN[C@@H](CC(=O)O)C(=O)O; Ac4c(3-oxa) = NC1(C(=O)O)COC1; NMeL = CN[C@@H](CC(C)C)C(=O)O; NMeNva = CCC[C@H](NC)C(=O)O; Morpholide = C1CN(*)CCO1; NMeA = CN[C@@H](C)C(=O)O; Aze = O=C(O)[C@@H]1CCN1; Ac4c = NC1(C(=O)O)CCC1; Sar = CNCC(=O)O

Legend:
[1] = biological target: GDP-bound HRAS wild-type protein (Homo sapiens, UniProt P01112); assay: Binding to HRAS by surface plasmon resonance (SPR), Single Cycle Kinetics; settings: ratio of KD for GDP-bound HRAS wild-type protein to KD for KRAS, SPR
Sequence of GDP-bound HRAS wild-type protein (P01112 whole entry): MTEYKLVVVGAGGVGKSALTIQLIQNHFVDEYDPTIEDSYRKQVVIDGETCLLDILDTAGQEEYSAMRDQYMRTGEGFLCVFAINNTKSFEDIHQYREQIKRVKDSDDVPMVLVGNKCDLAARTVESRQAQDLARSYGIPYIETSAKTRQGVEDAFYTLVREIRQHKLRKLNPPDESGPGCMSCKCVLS

[2] = biological target: GDP-bound KRAS wild-type protein (Homo sapiens, UniProt P01116); assay: Binding to KRAS by surface plasmon resonance (SPR), Single Cycle Kinetics; settings: SPR, Single Cycle Kinetics, GDP-bound KRAS wild-type protein; read-out: KRAS KD
Sequence of GDP-bound KRAS wild-type protein (P01116 whole entry): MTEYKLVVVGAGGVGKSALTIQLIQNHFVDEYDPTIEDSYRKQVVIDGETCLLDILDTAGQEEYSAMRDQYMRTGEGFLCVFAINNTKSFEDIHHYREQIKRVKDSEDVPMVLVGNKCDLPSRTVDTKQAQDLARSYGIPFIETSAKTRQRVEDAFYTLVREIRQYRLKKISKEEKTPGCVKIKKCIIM

[3] = biological target: GDP-bound NRAS wild-type protein (Homo sapiens, UniProt P01111); assay: Binding to NRAS by surface plasmon resonance (SPR), Single Cycle Kinetics; settings: ratio of KD for GDP-bound NRAS wild-type protein to KD for KRAS, SPR
Sequence of GDP-bound NRAS wild-type protein (P01111 whole entry): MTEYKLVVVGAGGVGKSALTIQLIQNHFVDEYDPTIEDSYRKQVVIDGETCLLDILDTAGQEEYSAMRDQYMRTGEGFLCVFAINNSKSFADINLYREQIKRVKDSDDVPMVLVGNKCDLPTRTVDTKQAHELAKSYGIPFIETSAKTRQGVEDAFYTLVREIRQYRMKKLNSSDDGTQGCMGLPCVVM

[4] = test system: human lung cancer strain NCI-H441; assay: cells; settings: NCI-H441, 96 h, read-out: NCI-H441 IC50 (nM), NCI-H441 cell proliferation, 4 days, CellTiter-Glo;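 also: cell proliferation inhibition after four days measured by CellTiter-Glo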

SMILES | Kd [2] [nM] | IC50 [4] [nM] | HRAS/KRAS (KD ratio) [1] | NRAS/KRAS (KD ratio) [3]
CCO[C@@H]1C[C@H]2C(=O)NC3(CCC3)C(=O)N(C)[C@@H](C3CCCC3)C(=O)N3CCC[C@@H]3CC(=O)N(C)[C@@H](CC3CC3)C(=O)N[C@@H]([C@@H](C)CC)C(=O)N(C)CC(=O)N(C)[C@H]3C/C=C\CCN(C3=O)[C@@H](Cc3ccc(C(F)(F)F)cc3)C(=O)N(C)CC(=O)N[C@@H](CCc3ccc(C(F)(F)F)c(OC)c3)C(=O)N2C1 [PP1616] | 0.29 | 33.5 | B (a compound having 3 or more and less than 10 is denoted as B) | B (a compound having 3 or more and less than 10 is denoted as B)
CCO[C@@H]1C[C@H]2C(=O)NC3(CC(C)(C)C3)C(=O)N(C)[C@@H](C3CCCC3)C(=O)N(C)[C@H](C(=O)N(C)CC)CC(=O)N(C)[C@@H](CC(F)F)C(=O)N[C@@H]([C@@H](C)CC)C(=O)N(C)CC(=O)N(C)[C@H]3C/C=C\CCN(C3=O)[C@@H](Cc3ccc(C(F)(F)F)cc3)C(=O)N(C)CC(=O)N[C@@H](CCc3ccc(C(F)(F)F)c(OC)c3)C(=O)N2C1 [PP1655] | 0.083 | 1.6 | A (a compound having 10 or more and less than 20 is denoted as A) | A (a compound having 10 or more and less than 20 is denoted as A)
CCCC[C@H]1C(=O)N[C@@H]([C@@H](C)CC)C(=O)N(C)CC(=O)N(C)[C@H]2C/C=C\CCN(C2=O)[C@@H](Cc2ccc(C(F)(F)F)cc2)C(=O)N(C)CC(=O)N[C@@H](CCc2cc(F)c(C(F)(F)F)c(F)c2)C(=O)N2C[C@@H](C)C[C@H]2C(=O)NC2(CC(C)(C)C2)C(=O)N(C)[C@@H](C2CCCC2)C(=O)N(C)[C@H](C(=O)N(C)C)CC(=O)N1C [PP1661] | 0.19 | 5.7 | A (a compound having 10 or more and less than 20 is denoted as A) | A (a compound having 10 or more and less than 20 is denoted as A)
CCCN(C)C(=O)[C@@H]1CC(=O)N(C)[C@@H](CC(F)(F)F)C(=O)N[C@@H]([C@@H](C)CC)C(=O)N(C)CC(=O)N(C)[C@H]2C/C=C\CCN(C2=O)[C@@H](Cc2ccc(C(F)(F)F)cc2)C(=O)N(C)CC(=O)N[C@@H](CCc2cc(F)c(C(F)(F)F)c(F)c2)C(=O)N2C[C@H](OCC)C[C@H]2C(=O)NC2(CC(F)(F)C2)C(=O)N(C)[C@@H](C2CCCC2)C(=O)N1C [PP1734] | 0.17 | 4.4 | A (a compound having 10 or more and less than 20 is denoted as A) | A (a compound having 10 or more and less than 20 is denoted as A)
CCC[C@H]1C(=O)N[C@@H]([C@@H](C)CC)C(=O)N(C)CC(=O)N(C)[C@H]2C/C=C\CCN(C2=O)[C@@H](Cc2ccc(C(F)(F)F)cc2)C(=O)N(C)CC(=O)N[C@@H](CCc2cc(F)c(C(F)(F)F)c(F)c2)C(=O)N2C[C@@H](C)C[C@H]2C(=O)NC2(CC(C)(C)C2)C(=O)N(C)[C@@H](C2CCCC2)C(=O)N(C)[C@H](C(=O)N(C)C)CC(=O)N1C [PP1683] | 0.097 | 2.5 | A (a compound having 10 or more and less than 20 is denoted as A) | A (a compound having 10 or more and less than 20 is denoted as A)
CC[C@H](C)[C@@H]1NC(=O)[C@H](CC(C)C)N(C)C(=O)C[C@@H](C(=O)N(C)C)N(C)C(=O)[C@H](C2CCCC2)N(C)C(=O)C2(CC(C)(C)C2)NC(=O)[C@@H]2CCCN2C(=O)[C@H](CCc2cc(F)c(C(F)(F)F)c(F)c2)NC(=O)CN(C)C(=O)[C@H](Cc2ccc(C(F)(F)F)cc2)N2CC/C=C\C[C@@H](C2=O)N(C)C(=O)CN(C)C1=O [PP1727] | 0.13 | 4 | A (a compound having 10 or more and less than 20 is denoted as A) | A (a compound having 10 or more and less than 20 is denoted as A)

Now from value to compound, other results behind:

Kd [2] [nM] | IC50 [4] [nM] | SMILES | HRAS/KRAS (KD ratio) [1] | NRAS/KRAS (KD ratio) [3]
1 | 55.9 | CCO[C@@H]1C[C@H]2C(=O)NC3(CCCC3)C(=O)N(C)[C@@H](C3CCCC3)C(=O)N(C)[C@H](C(=O)N(C)C)CC(=O)N(C)[C@@H](CC)C(=O)N[C@@H]([C@@H](C)CC)C(=O)N(C)CC(=O)N(C)[C@H]3C/C=C\CCN(C3=O)[C@@H](Cc3ccc(C(F)(F)F)cc3)C(=O)N(C)CC(=O)N[C@@H](CCc3cc(C)c(Cl)c(C)c3)C(=O)N2C1 [PP1823] | A (a compound having 10 or more and less than 20 is denoted as A) | A (a compound having 10 or more and less than 20 is denoted as A)
0.051 | 6.9 | CCO[C@@H]1C[C@H]2C(=O)N(C)C3(CCC3)C(=O)N(C)[C@@H](C3CCCC3)C(=O)N(C)[C@H](C(=O)N(C)C)CC(=O)N(C)[C@@H](CC)C(=O)N[C@@H]([C@@H](C)CC)C(=O)N3CCC[C@H]3C(=O)N(C)[C@H]3C/C=C\CCN(C3=O)[C@@H](Cc3ccc(C)cc3)C(=O)N(C)CC(=O)N[C@@H](CCc3cc(F)c(C(F)(F)F)c(F)c3)C(=O)N2C1 [PP1785] | A (a compound having 10 or more and less than 20 is denoted as A) | A (a compound having 10 or more and less than 20 is denoted as A)
0.12 | 1.9 | CCO[C@@H]1C[C@H]2C(=O)NC3(CC(C)(C)C3)C(=O)N(C)[C@@H](C3CCCC3)C(=O)N(C)[C@H](C(=O)N(C)CC)CC(=O)N(C)[C@@H](CC)C(=O)N[C@@H]([C@@H](C)CC)C(=O)N(C)CC(=O)N(C)[C@H]3C/C=C\CCN(C3=O)[C@@H](Cc3ccc(C)cc3)C(=O)N(C)CC(=O)N[C@@H](CCc3cc(F)c(C(F)(F)F)c(F)c3)C(=O)N2C1 [PP1886] | B (a compound having 3 or more and less than 10 is denoted as B) | A (a compound having 10 or more and less than 20 is denoted as A)
0.82 | 4.4 | CCC[C@H]1C(=O)N[C@@H]([C@@H](C)CC)C(=O)N(C)[C@@H](C)C(=O)N2CC[C@H]2C(=O)N(CCC)[C@@H](Cc2ccc(C(F)(F)F)cc2)C(=O)N(C)CC(=O)N[C@@H](CCc2ccc(C(F)(F)F)c(Cl)c2)C(=O)N2CCC[C@H]2C(=O)NC2(CCC2)C(=O)N(C)[C@@H](C2CCCC2)C(=O)N(CC)[C@H](C(=O)N2CCOCC2)CC(=O)N1C [PP1955] ([NMeNva]I[NMeA][Aze][NPrPhe(4-CF3)][Sar][hPhe(3-Cl-4-CF3)]P[Ac4c][NMeGly(cPent)][NEtAsp]-Morpholide; lactam N-11) | B (a compound having 3 or more and less than 10 is denoted as B) | C (A compound having a KD ratio of 0.1 or more and less than 3 is denoted as C)
0.11 | 10.3 | CC[C@H](C)[C@@H]1NC(=O)[C@H](C2CCC2)N(C)C(=O)C[C@@H](C(=O)N(C)C)N(C)C(=O)[C@H](C2CCCC2)N(C)C(=O)C2(CC(C)(C)C2)NC(=O)[C@@H]2C[C@H](C)CN2C(=O)[C@H](CCc2ccc(C(F)(F)F)c(OC)c2)NC(=O)CN(C)C(=O)[C@H](Cc2ccc(C(F)(F)F)cc2)N2CC/C=C\C[C@@H](C2=O)N(C)C(=O)CN(C)C1=O [PP2011] | A (a compound having 10 or more and less than 20 is denoted as A) | A (a compound having 10 or more and less than 20 is denoted as A)
0.23 | 44.1 | CCCN1C(=O)CN(C)C(=O)CN(C)C(=O)[C@H]([C@@H](C)CC)NC(=O)[C@H](CC(C)C)N(C)C(=O)C[C@@H](C(=O)N2CCOCC2)N(C)C(=O)[C@H](C2CCCC2)N(C)C(=O)C2(COC2)NC(=O)[C@@H]2CCCN2C(=O)[C@H](CCc2ccc(C(F)(F)F)c(Cl)c2)NC(=O)CN(C)C(=O)[C@@H]1Cc1ccc(C(F)(F)F)cc1 [PP1922] ([NMeL]I[Sar][Sar][NPrPhe(4-CF3)][Sar][hPhe(3-Cl-4-CF3)]P[Ac4c(3-oxa)][NMeGly(cPent)][NMeD]-Morpholide; lactam N-11) | C (A compound having a KD ratio of 0.1 or more and less than 3 is denoted as C) | B (a compound having 3 or more and less than 10 is denoted as B)
0.21 | 12.5 | CCC[C@H]1C(=O)N[C@@H]([C@@H](C)CC)C(=O)N(C)CC(=O)N(C)[C@H]2C/C=C\CCN(C2=O)[C@@H](Cc2ccc(C)cc2)C(=O)N(C)CC(=O)N[C@@H](CCc2ccc(C(F)(F)F)c(OC)c2)C(=O)N2C[C@@H](C)C[C@H]2C(=O)NC2(CC(C)(C)C2)C(=O)N(C)[C@@H](C2CCCC2)C(=O)N(C)[C@H](C(=O)N(C)CC)CC(=O)N1C [PP1889] | B (a compound having 3 or more and less than 10 is denoted as B) | A (a compound having 10 or more and less than 20 is denoted as A)
0.23 | 13.3 | CCCN(C)C(=O)[C@@H]1CC(=O)N(C)[C@@H](COC)C(=O)N[C@@H]([C@@H](C)CC)C(=O)N(C)CC(=O)N(C)[C@H]2C/C=C\CCN(C2=O)[C@@H](Cc2ccc(C(F)(F)F)cc2)C(=O)N(C)CC(=O)N[C@@H](CCc2cc(F)c(Cl)c(F)c2)C(=O)N2C[C@H](OCC)C[C@H]2C(=O)NC2(CC(C)(C)C2)C(=O)N(C)[C@@H](C2CCCC2)C(=O)N1C [PP1763] | A (a compound having 10 or more and less than 20 is denoted as A) | A (a compound having 10 or more and less than 20 is denoted as A)
0.087 | 12.5 | CCO[C@@H]1C[C@H]2C(=O)NC3(CC(C)(C)C3)C(=O)N(C)[C@@H](C3CCCC3)C(=O)N(C)[C@H](C(=O)N(C)C)CC(=O)N(C)[C@@H](C(C)C)C(=O)N[C@@H]([C@@H](C)CC)C(=O)N(C)CC(=O)N(C)[C@H]3C/C=C\CCN(C3=O)[C@@H](Cc3ccc(C(F)(F)F)cc3)C(=O)N(C)CC(=O)N[C@@H](CCc3ccc(C(F)(F)F)c(OC)c3)C(=O)N2C1 [PP1979] | A (a compound having 10 or more and less than 20 is denoted as A) | AA (a compound having 20 or more is denoted as AA)
